Source: patent publication US7611852B2, “Functional cardiomyocytes from human embryonic stem cells” (Wisconsin Alumni Research Foundation, priority 2002, dated 2009)

Legend:
[1] = system: human embryonic stem cell-derived cardiomyocytes; test: Intracellular action potential recording with sharp microelectrodes, cell type not specified; format: cell-based; conditions: 500 nM E-4031
Protocol: (§1) A single beating, microdissected EB outgrowth was cultured on a glass coverslip for 1-10 days. The coverslip was then attached to the bottom of an experimental chamber mounted on an inverted microscope (Nikon Diaphot 200). The EBs were perfused with Tyrodes solution consisting of (mmol/L): 140 NaCl, 1 MgCl2, 10 HEPES, 10 Glucose, 1.8 CaCl2, pH 7.4 with NaOH at 37° C. Contractions were measured using video edge detection. For intracellular electrophysiology experiments, sharp glass microelectrodes were fabricated with resistances of 30-100 MΩ when filled with 3 mol/L KCl. Spontaneously beating EBs were impaled with the microelectrodes and pipette capacitance was nulled. […] In some experiments, the preparation underwent electrical field stimulation at rates from 1 to 3 Hz. Data were digitized at 20 kHz and filtered at 2 kHz. APs were analyzed using pClamp8.02 (Axon Instruments, Foster City, Calif.) and Origin 6.0 software (Microcal Inc, Northampton, Mass.) to determine AP duration at 50% and 90% of repolarization (APD50 and APD90), AP amplitude (APA), maximum diastolic potential (MDP), and the maximum rate of rise of the AP upstroke (dV/dtmax).
(§2) Repolarization of the cardiac action potential is due to multiple ionic currents with an important role played by voltage gated K+ channels; however, there is significant species variability of the exact type of K+ channels present. […]

[2] = system: embryonic atrial-like cardiomyocytes; test: Intracellular action potential recording with sharp microelectrodes, embryonic atrial-like cardiomyocytes in EBs; format: cell-based, human
Source text: The applicants here have determined that the HERG channel response of cardiomyocytes in culture created from human embryonic stem cells can be tested and that they do have the same responsive characteristics as mature heart cells in adult humans. Shown in FIG. 5 is an experiment conducted on an atrial type cell, which is a cardiomyocyte in an EB in culture. Note that the electrical profile of the potential generated by that cell, labeled basal in FIG. 5, is characteristic of an embryonic atrial type action potential. To the culture in which that basal signal was being observed, 500 nanomolar E4031 was added. E4031 is a known highly specific HERG channel blocker which blocks the rapid delayed rectifying potassium current (IKr) in adult human heart cells. The addition of that chemical to the medium in which the EB was cultured led to the modification of the action potential generated by that atrial type cell, as illustrated by the curve marked “500 nM E4031” in FIG. 5. The action potential was prolonged due to delayed return to a resting state. This is precisely the effect that this molecule, E4031, is known to have on adult heart cells and precisely the effect that one would predict from the blockage of the HERG channel.
as §1
as §2, with “present. In human heart, current through HERG potassium channels (KCNH2), IKr, plays a major role in repolarization of the action potential.” for “present.”

[3] = system: embryonic ventricular-like cardiomyocytes; format: cell-based; conditions: 500 nM E-4031
[4] = system: human embryonic stem cell-derived cardiomyocytes (beating EB outgrowths); test: Contraction measurements of beating EB outgrowths by video edge detection during electrical field stimulation; format: cell-based; conditions: 1 micromolar, EB electrically stimulated at 1 hertz, basal level defined as 100, FIG. 1
Source text: One problem in the testing of cardiomyocytes in EBs is that the rate of spontaneous beating is variable can be dependent on a variety of factors. […] This can be readily done by applying an electrical field stimulation to the EB. This is done most simply by applying electrodes to opposite sides of the culture container in which the EB is contained. […] It is necessary as a part of this process to maintain the EB culture at a constant temperature, since temperature changes can also effect the amplitude of EB beats. It is possible to optically scan the EBs during such beating, using imaging processing observing the EB with video microscopy, to determine the amplitude of the beats which occur in such an EB. […] Additionally other properties of the beat can be monitored such as the rate of contraction and relaxation of the embryoid body providing additional mechanistic information. […]
Contractions were measured using video edge detection. […] Individual beating EBs were monitored with Video Edge Detector VED 105 (Crescent Electronics) through CCD BW Camera NL-2332 (National Electronic) and Sony BW Video Monitor PVM-97 (Sony Corp). The twitch responses at sharp edge of beating EB outgrowth were recorded at 1 kHz through DigiData 1200 A/D converter with pClamp 8.2 acquisition software (both from Axon Instrument, Foster City, Calif.). […]

SMILES	APA (action potential amplitude) [1]	MDP (maximum diastolic potential) [1]	APD50 ([2]; 500 nM E-4031)	APD90 ([2]; 500 nM E-4031)	action potential duration ([2]; 500 nM E-4031)	action potential duration ([2]; 500 nanomolar E4031 added to EB culture, atrial type cell, FIG. 5)	APD50 [3]	action potential duration [3]	APD90 ([3]; larger effect on APD90 than APD50)	amplitude of the beat or contraction of the EB [4]
Cc1cccc(CCN2CCC(C(=O)c3ccc(NS(C)(=O)=O)cc3)CC2)n1 [E-4031]	not statistically significant effects	not statistically significant effects	not APD50 was significantly prolonged	significantly prolonged	action potential prolongation	prolonged	significant prolongation	action potential prolongation	significant prolongation	
CC(C)NCC(O)c1ccc(O)c(O)c1 (stereo not shown) [isoproterenol]										increases dramatically
